Reference: patent US20170217976A1, “6-(AMINO ACID)-MORPHINAN DERIVATIVES IN COMBINATION WITH PERMEATION […] FOR USE AS AN ORALLY, […], TRA[…] NASALLY AD[…]” (C[…], priority 2014, published 2017)
pKi: −log10 of the molar value. Read-outs that look alike come from different tables or passages of the source.

Tests used:
DOR = target: T1, DOR (Rattus norvegicus, UniProt P33533); experiment: Opioid receptor binding, DOR, rat brain membranes; conditions: for Ki: in vitro binding assay, rat brain membranes
T1 construct: from tissue

KOR = target: T2, KOR (Cavia porcellus, UniProt P41144); experiment: Opioid receptor binding, KOR, guinea pig brain membranes; conditions: for Ki: in vitro binding assay, guinea pig brain membranes
T2 construct: from tissue

MOR = target: T3, MOR (Rattus norvegicus, UniProt P33535); experiment: Opioid receptor binding, MOR, rat brain membranes; conditions: for Ki: in vitro binding assay, rat brain membranes
T3 construct: from tissue

[1] = Binding Ki DOR, Table 1-4, rat brain membranes
[2] = Binding Ki KOR, Table 1-4, guinea pig brain membranes
[3] = Binding Ki MOR, Table 1-4, rat brain membranes
[4] = Binding Ki DOR, Table 2-6, rat brain membranes
[5] = Binding Ki KOR, Table 2-6, guinea pig brain membranes
[6] = Binding Ki MOR, Table 2-6, rat brain membranes
[7] = Binding Ki DOR, Table 1-6, rat brain membranes
[8] = Binding Ki KOR, Table 1-6, guinea pig brain membranes
[9] = Binding Ki MOR, Table 1-6, rat brain membranes

T1 sequence (P33533 whole entry): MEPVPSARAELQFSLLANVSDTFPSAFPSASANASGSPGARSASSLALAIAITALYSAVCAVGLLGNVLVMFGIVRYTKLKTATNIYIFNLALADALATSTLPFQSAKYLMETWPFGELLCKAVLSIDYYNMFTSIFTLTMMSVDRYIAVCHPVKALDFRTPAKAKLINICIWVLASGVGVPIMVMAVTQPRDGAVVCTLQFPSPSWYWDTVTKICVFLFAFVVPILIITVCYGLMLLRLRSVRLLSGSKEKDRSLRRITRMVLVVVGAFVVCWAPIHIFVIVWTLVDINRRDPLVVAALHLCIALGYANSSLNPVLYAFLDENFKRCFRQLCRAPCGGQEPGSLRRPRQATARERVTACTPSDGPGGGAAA
T2 sequence (P41144 whole entry): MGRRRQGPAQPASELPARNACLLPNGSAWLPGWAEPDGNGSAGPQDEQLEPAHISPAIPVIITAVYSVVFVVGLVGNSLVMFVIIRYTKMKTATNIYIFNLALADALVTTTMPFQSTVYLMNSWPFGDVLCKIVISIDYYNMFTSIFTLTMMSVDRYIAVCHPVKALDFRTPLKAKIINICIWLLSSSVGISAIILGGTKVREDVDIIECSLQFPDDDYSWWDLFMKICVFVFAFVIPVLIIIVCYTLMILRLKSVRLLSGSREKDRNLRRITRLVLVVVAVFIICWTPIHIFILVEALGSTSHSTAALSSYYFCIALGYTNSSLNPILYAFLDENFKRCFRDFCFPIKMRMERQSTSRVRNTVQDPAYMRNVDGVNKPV
T3 sequence (P33535 whole entry): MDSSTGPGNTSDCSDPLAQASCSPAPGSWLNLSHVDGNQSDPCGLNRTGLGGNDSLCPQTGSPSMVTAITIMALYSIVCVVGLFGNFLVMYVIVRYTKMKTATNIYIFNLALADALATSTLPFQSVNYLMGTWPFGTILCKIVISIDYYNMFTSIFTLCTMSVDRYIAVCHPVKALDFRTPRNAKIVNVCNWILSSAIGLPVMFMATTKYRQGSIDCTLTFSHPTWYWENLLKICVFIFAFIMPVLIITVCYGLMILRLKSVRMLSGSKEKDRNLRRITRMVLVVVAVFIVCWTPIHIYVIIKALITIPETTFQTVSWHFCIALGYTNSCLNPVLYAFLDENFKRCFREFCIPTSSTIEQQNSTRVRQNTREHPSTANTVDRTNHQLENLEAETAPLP

CO[C@@]12CC[C@H](N[C@@H](CC(C)C)C(=O)O)[C@@H]3Oc4c(O)ccc5c4[C@@]31CCN(C)[C@@H]2C5 [Compound 40]
Ki (DOR; Binding Ki (nM) DOR): 2.34 nM
pKi (DOR; [1]): 8.63
Ki (KOR; Binding Ki (nM) KOR): 141 nM
pKi (KOR; [2]): 6.85
Ki (MOR; Binding Ki (nM) MOR): 0.68 nM
pKi (MOR; [3]): 9.17

COC12CCC(NCCC(=O)O)C3Oc4c(O)ccc5c4C31CCN(C)C2C5 (single isomer, unassigned) [Compound 21]
Ki (DOR; Binding Ki (nM) DOR): 60 nM
pKi (DOR; [1]): 7.22
Ki (KOR; Binding Ki (nM) KOR): 182 nM
pKi (KOR; [2]): 6.74
Ki (MOR; Binding Ki (nM) MOR): 1.3 nM
pKi (MOR; [3]): 8.89

CO[C@@]12CC[C@@H](N[C@@H](CC(N)=O)C(=O)O)[C@@H]3Oc4c(O)ccc5c4[C@@]31CCN(C)[C@@H]2C5 [Compound 27]
Ki (DOR; Binding Ki (nM) DOR): 2.25 nM
pKi (DOR; [1]): 8.65
Ki (KOR; Binding Ki (nM) KOR): 103 nM
pKi (KOR; [2]): 6.99
Ki (MOR; Binding Ki (nM) MOR): 1.26 nM
pKi (MOR; [3]): 8.90

CO[C@@]12CC[C@H](N[C@@H](CC(C)C)C(=O)OC(C)(C)C)[C@@H]3Oc4c(O)ccc5c4[C@@]31CCN(C)[C@@H]2C5 [40-t-Bu ester]
Ki (DOR; Binding Ki (nM) DOR): 0.13 nM
Ki (KOR; Binding Ki (nM) KOR): 8.07 nM
Ki (MOR; Binding Ki (nM) MOR): 0.087 nM

CCO[C@@]12CC[C@@H](N[C@@H](Cc3ccccc3)C(=O)O)[C@@H]3Oc4c(O)ccc5c4[C@@]31CCN(CC1CC1)[C@@H]2C5 [Compound 56]
pKi (DOR; [4]): 8.75
pKi (KOR; [5]): 7.94
pKi (MOR; [6]): 8.98

CO[C@@]12CC[C@H](NCCC(=O)OC(C)(C)C)[C@@H]3Oc4c(O)ccc5c4[C@@]31CCN(C)[C@@H]2C5 [21-t-Bu ester]
Ki (DOR; Binding Ki (nM) DOR): 0.83 nM
Ki (KOR; Binding Ki (nM) KOR): 13.5 nM
Ki (MOR; Binding Ki (nM) MOR): 0.31 nM

CO[C@@]12CC[C@@H](N[C@H](C(=O)OC(C)(C)C)C(C)C)[C@@H]3Oc4c(O)ccc5c4[C@@]31CCN(C)[C@@H]2C5 [29-t-Bu ester]
Ki (DOR; Binding Ki (nM) DOR): 0.86 nM
Ki (KOR; Binding Ki (nM) KOR): 214 nM
Ki (MOR; Binding Ki (nM) MOR): 1.03 nM

CO[C@@]12CC[C@H](N[C@@H](CC(N)=O)C(=O)OC(C)(C)C)[C@@H]3Oc4c(O)ccc5c4[C@@]31CCN(C)[C@@H]2C5 [26-t-Bu ester]
Ki (DOR; read-out: Binding Ki (nM) DOR): 0.33 nM
Ki (KOR; read-out: Binding Ki (nM) KOR): 5.33 nM
Ki (MOR; read-out: Binding Ki (nM) MOR): 0.45 nM

CO[C@@]12CC[C@H](N[C@H](C(=O)OC(C)(C)C)C(C)C)[C@@H]3Oc4c(O)ccc5c4[C@@]31CCN(C)[C@@H]2C5 [28-t-Bu ester]
Ki (DOR; read-out: Binding Ki (nM) DOR): 0.18 nM
Ki (KOR; read-out: Binding Ki (nM) KOR): 10.5 nM
Ki (MOR; read-out: Binding Ki (nM) MOR): 0.25 nM

CO[C@@]12CC[C@@H](N[C@@H](C)C(=O)O)[C@@H]3Oc4c(O)ccc5c4[C@@]31CCN(CC1CC1)[C@@H]2C5 [Compound 72]
pKi (DOR; [7]): 8.24
pKi (DOR; [4]): 8.24
pKi (KOR; [8]): 7.94
pKi (KOR; [5]): 7.94
pKi (MOR; [9]): 8.67
pKi (MOR; [6]): 8.67

CO[C@@]12CC[C@@H](N[C@@H](CCC(=O)OC(C)(C)C)C(=O)OC(C)(C)C)[C@@H]3Oc4c(O)ccc5c4[C@@]31CCN(C)[C@@H]2C5 [20-t-Bu ester]
Ki (DOR; read-out: Binding Ki (nM) DOR): 0.19 nM
Ki (KOR; read-out: Binding Ki (nM) KOR): 81.5 nM
Ki (MOR; read-out: Binding Ki (nM) MOR): 1.53 nM

CO[C@@]12CC[C@@H](N[C@@H](CC(=O)O)C(=O)O)[C@@H]3Oc4c(O)ccc5c4[C@@]31CCN(CC1CC1)[C@@H]2C5 [Compound 73]
pKi (DOR; [7]): 9.19
pKi (DOR; [4]): 9.19
pKi (KOR; [8]): 7.93
pKi (KOR; [5]): 7.93
pKi (MOR; [9]): 8.65
pKi (MOR; [6]): 8.65

CO[C@@]12CC[C@@H](N[C@@H](Cc3ccccc3)C(=O)OC(C)(C)C)[C@@H]3Oc4c(O)ccc5c4[C@@]31CCN(CC1CC1)[C@@H]2C5 [58-tBu ester]
pKi (DOR; [4]): 8.34
pKi (KOR; [5]): 7.88
pKi (MOR; [6]): 8.62

CC[C@H](C)[C@H](N[C@@H]1CC[C@@]2(OC)[C@H]3Cc4ccc(O)c5c4[C@@]2(CCN3CC2CC2)[C@H]1O5)C(=O)OC(C)(C)C [78-tBu ester]
pKi (DOR; [4]): 9.28
pKi (KOR; [5]): 8.25
pKi (MOR; [6]): 9.01

CO[C@@]12CC[C@@H](N[C@@H](CC(N)=O)C(=O)OC(C)(C)C)[C@@H]3Oc4c(O)ccc5c4[C@@]31CCN(C)[C@@H]2C5 [27-t-Bu ester]
Ki (DOR; Binding Ki (nM) DOR): 0.66 nM
Ki (KOR; Binding Ki (nM) KOR): 75.8 nM
Ki (MOR; Binding Ki (nM) MOR): 0.6 nM

CO[C@@]12CC[C@H](N[C@@H](CC(C)C)C(=O)O)[C@@H]3Oc4c(O)ccc5c4[C@@]31CCN(CC1CC1)[C@@H]2C5 [Compound 76]
pKi (DOR; [4]): 8.66
pKi (KOR; [5]): 8.10
pKi (MOR; [6]): 9.14

CN1CCC23c4c5ccc(O)c4OC2C(NCC(=O)OC(C)(C)C)CCC3(OCCCc2ccccc2)C1C5 (stereo not drawn) [8-t-Bu ester]
Ki (DOR; read-out: Binding Ki (nM) DOR): 0.92 nM
Ki (KOR; read-out: Binding Ki (nM) KOR): 2.02 nM
Ki (MOR; read-out: Binding Ki (nM) MOR): 1.03 nM

CO[C@@]12CC[C@@H](NCC(=O)OC(C)(C)C)[C@@H]3Oc4c(O)ccc5c4[C@@]31CCN(C)[C@@H]2C5 [HS731-t-Bu ester]
Ki (DOR; read-out: Binding Ki (nM) DOR): 0.68 nM
Ki (KOR; read-out: Binding Ki (nM) KOR): 56.2 nM
Ki (MOR; Binding Ki (nM) MOR): 1.3 nM

COC12CCC(NC(C(=O)O)C(C)C)C3Oc4c(O)ccc5c4C31CCN(CC1CC1)C2C5 (single isomer, unassigned) [Compound 68]
pKi (DOR; [7]): 9.28
pKi (DOR; [4]): 9.28
pKi (KOR; [8]): 8.48
pKi (KOR; [5]): 8.48
pKi (MOR; [9]): 9.36
pKi (MOR; [6]): 9.36

CO[C@@]12CC[C@@H](N[C@@H](C(=O)OC(C)(C)C)C(C)C)[C@@H]3Oc4c(O)ccc5c4[C@@]31CCN(C)[C@@H]2C5 [31-t-Bu ester]
Ki (DOR; read-out: Binding Ki (nM) DOR): 0.21 nM
Ki (KOR; read-out: Binding Ki (nM) KOR): 206 nM
Ki (MOR; read-out: Binding Ki (nM) MOR): 1.98 nM

CO[C@@]12CC[C@H](N[C@H](C(=O)O)[C@@H](C)O)[C@@H]3Oc4c(O)ccc5c4[C@@]31CCN(C)[C@@H]2C5 [Compound 34]
Ki (DOR; Binding Ki (nM) DOR): 4.13 nM
pKi (DOR; [1]): 8.38
Ki (KOR; Binding Ki (nM) KOR): 120 nM
pKi (KOR; [2]): 6.92
Ki (MOR; Binding Ki (nM) MOR): 1.03 nM
pKi (MOR; [3]): 8.99

COC12CCC(NC(C(=O)O)C(C)C)C3Oc4c(O)ccc5c4C31CCN(C)C2C5 (single isomer, unassigned) [Compound 30]
Ki (DOR; Binding Ki (nM) DOR): 1.93 nM
pKi (DOR; [1]): 8.71
Ki (KOR; Binding Ki (nM) KOR): 202 nM
pKi (KOR; [2]): 6.69
Ki (MOR; Binding Ki (nM) MOR): 1.7 nM
pKi (MOR; [3]): 8.77

CO[C@@]12CC[C@H](N[C@H](C(=O)N[C@@H](Cc3ccc(O)cc3)C(=O)OC(C)(C)C)C(C)C)[C@@H]3Oc4c(O)ccc5c4[C@@]31CCN(C)[C@@H]2C5 [32-t-Bu ester]
Ki (DOR; read-out: Binding Ki (nM) DOR): 0.17 nM
Ki (KOR; read-out: Binding Ki (nM) KOR): 3.5 nM
Ki (MOR; Binding Ki (nM) MOR): 0.11 nM

CO[C@@]12CC[C@H](N[C@@H](C)C(=O)OC(C)(C)C)[C@@H]3Oc4c(O)ccc5c4[C@@]31CCN(C)[C@@H]2C5 [1-t-Bu ester]
Ki (DOR; Binding Ki (nM) DOR): 0.41 nM
Ki (KOR; Binding Ki (nM) KOR): 11.3 nM
Ki (MOR; Binding Ki (nM) MOR): 0.29 nM

CO[C@@]12CC[C@@H](N[C@@H](CCCCN)C(=O)OC(C)(C)C)[C@@H]3Oc4c(O)ccc5c4[C@@]31CCN(C)[C@@H]2C5 [39-t-Bu ester]
Ki (DOR; read-out: Binding Ki (nM) DOR): 0.88 nM
Ki (KOR; read-out: Binding Ki (nM) KOR): 21.4 nM
Ki (MOR; read-out: Binding Ki (nM) MOR): 0.58 nM

COC12CCC(NC(CCC(=O)O)C(=O)O)C3Oc4c(O)ccc5c4C31CCN(CC1CC1)C2C5 (stereo not drawn) [Compound 74]
pKi (DOR; [7]): 8.44
pKi (DOR; [4]): 8.44
pKi (KOR; [8]): 8.18
pKi (KOR; [5]): 8.18
pKi (MOR; [9]): 8.71
pKi (MOR; [6]): 8.71

CO[C@@]12CC[C@H](N[C@H](C(=O)OC(C)(C)C)[C@@H](C)O)[C@@H]3Oc4c(O)ccc5c4[C@@]31CCN(C)[C@@H]2C5 [34-t-Bu ester]
Ki (DOR; Binding Ki (nM) DOR): 0.37 nM
Ki (KOR; Binding Ki (nM) KOR): 9.24 nM
Ki (MOR; Binding Ki (nM) MOR): 0.2 nM

CO[C@@]12CC[C@@H](N[C@@H](CO)C(=O)OC(C)(C)C)[C@@H]3Oc4c(O)ccc5c4[C@@]31CCN(C)[C@@H]2C5 [37-t-Bu ester]
Ki (DOR; read-out: Binding Ki (nM) DOR): 0.64 nM
Ki (KOR; read-out: Binding Ki (nM) KOR): 83.3 nM
Ki (MOR; read-out: Binding Ki (nM) MOR): 0.6 nM

CCC(C)C(NC1CCC2(OC)C3Cc4ccc(O)c5c4C2(CCN3C)C1O5)C(=O)OC(C)(C)C (single isomer, unassigned) [43-t-Bu ester]
Ki (DOR; Binding Ki (nM) DOR): 2.12 nM
Ki (KOR; Binding Ki (nM) KOR): 208 nM
Ki (MOR; Binding Ki (nM) MOR): 2.87 nM

CO[C@@]12CC[C@@H](NCCCC(=O)OC(C)(C)C)[C@@H]3Oc4c(O)ccc5c4[C@@]31CCN(C)[C@@H]2C5 [16-t-Bu ester]
Ki (DOR; read-out: Binding Ki (nM) DOR): 1.63 nM
Ki (KOR; read-out: Binding Ki (nM) KOR): 8.79 nM
Ki (MOR; read-out: Binding Ki (nM) MOR): 0.54 nM

CO[C@@]12CC[C@@H](N[C@@H](Cc3ccccc3)C(=O)O)[C@@H]3Oc4c(O)ccc5c4[C@@]31CCN(CC1CC1)[C@@H]2C5 [Compound 58]
pKi (DOR; Table 2-6, rat brain membranes, read-out: Binding Ki DOR): 8.69
pKi (KOR; Table 2-6, guinea pig brain membranes, read-out: Binding Ki KOR): 8.07
pKi (MOR; Table 2-6, rat brain membranes, read-out: Binding Ki MOR): 8.91
